One assay deals with chick rectum. Description: Chick rectum relaxant activity. As to conditions: fold activity versus α-hANP. The procedure:
Chick rectum relaxant activity was measured in accordance with the method of Curtie et al. (Cuttle et al., Nature, 221, 1-13, 1983).

Assay [1] relates to cultured vascular smooth muscle cell line. In words: cGMP production in cultured vascular smooth muscle cell line. Type of assay: cell-based.
For another assay, the system named is Male SD rats. In words: Natriuretic and hypotensive actions in anesthetized rats after intravenous administration. In kind it is in vivo, rat. Particulars: for Blood pressure drop / Cl- excretion / K+ excretion / Na+ excretion / Urine excretion: change in 15 min after administration vs before, mean±S.D., 4 animals. The procedure: Male SD rats (body weight: 230-290 g) were anesthetized by intraperitoneal injection with 65 mg/kg of pentobarbital and fitted with a tracheotomy tube (PE-240 of Clay Adams) in order to insure the respiratory tract. A cannula (PE-50) for blood pressure measurement was inserted into the hip artery and a Ringer's solution was injected at a steady rate of 1.8 ml/hr through a cannula (PE-10) inserted into the hip vein. A urinary sample was taken into a test tube through a cystic cannula in the form of a Silastic tube (i.d. 0.02 inch; o.d. 0.037 inch; Dow Corning). Urinary samples were taken both for 15 minutes before the administration of the test substance and until 15 minutes after the administration at 5 min interval, followed by subsequent sampling at predetermined time intervals. By comparing the amount of each sample with the concentration of an electrolyte in it, as well as by measuring the blood pressure changes, the actions of the test substance were evaluated.
The test substance CNP was dissolved in a predetermined amount in 0.1 N acetic acid and thereafter neutralized with a 1/10 volume of 1.3 M Tris solution. The sample was diluted with 50 μl of sterilized physiological saline and administered via the cervical vein.
Data are shown in terms of mean±S.D., as obtained from each group of 4 animals, of the change that occurred in the 15-min period from the administration of the test substance, as compared to the state before the administration.

Another assay deals with VSMC of rats. In words: Cell growth suppressing activity ([3H]thymidine uptake). Particulars: cultured vascular smooth muscle cell line. Type of assay: cell-based, rat. The method, then: Cell growth suppressing ability was evaluated in accordance with the method of Kariya et al. (Atherosclerosis, 80, 143-147, 1990) by measuring the uptake of ^3 H thymidine into cells as an indicator of DNA synthesis activity using VSMC of rats. Cells tuned to a stationary phase were incubated in 1% serum at 37° C. for 14 h together with various concentrations of α-hANP or CNP; following the addition of 37 KBq/ml [^3 H]thymidine, the incubation was continued for another 4 h. The radioactivity of [^3 H] thymidine incorporated into the cells was measured. The values of measurement were such that the radioactivity of [^3 H] thymidine for the case where only 1% serum was added in the absence of peptide was taken as 100%, with the percent suppression due to the peptide at the respective concentrations being accordingly calculated.

The test system of a further assay is rats. As to conditions: cited from earlier work.

Positions of bridges follow the written chain, without caps; N, C: chain ends. No end group written: not given here.

`CC[C@H](C)[C@@H]1NC(=O)[C@H](CCCNC(=N)N)NC(=O)[C@H](CC(=O)O)NC(=O)[C@H](CC(C)C)NC(=O)[C@H](CCCCN)NC(=O)[C@H](CC(C)C)NC(=O)CNC(=O)[C@H](Cc2ccccc2)NC(=O)[C@@H](NC(=O)CNC(=O)[C@H](CCCCN)NC(=O)[C@H](CO)NC(=O)[C@H](CC(C)C)NC(=O)CN)CSSC[C@@H](C(=O)O)NC(=O)CNC(=O)[C@H](CC(C)C)NC(=O)CNC(=O)[C@H](CO)NC(=O)[C@H](CCSC)NC(=O)[C@H](CO)NC(=O)CNC1=O` [CNP]: the “Chick rectum relaxant activity relative to α-hANP” value in the assay with chick rectum is given as 3 - 4 times. Moreover, in assay [1], the “Activity for promoting the production of cGMP (in words)” value was “found to have an activity for promoting the production of cyclic guanosine monophosphate”. In addition, in the assay on Male SD rats (CNP dose 12 nmol/kg i.v.), the Blood pressure drop came to 6.7 ± 1.7 mmHg, the Cl- excretion is on record as 228 ± 32%, the “K+ excretion” value was found to be 220 ± 43% and the “Na+ excretion” value was determined as 192 ± 28%. For the same compound, the Urine excretion in the assay on Male SD rats (CNP dose 12 nmol/kg i.v.) is given as 229 ± 38%. In the assay with Male SD rats (CNP dose 80 nmol/kg i.v.), the Blood pressure drop came out at 16.7 ± 4.2 mmHg, the Cl- excretion is listed as 301 ± 83%, the “K+ excretion” value is 167 ± 29% and the “Na+ excretion” value came to 286 ± 125%. This compound also gave a Urine excretion in the assay with Male SD rats (CNP dose 80 nmol/kg i.v.) of 251 ± 62%. Also, in the assay on Male SD rats (CNP dose 160 nmol/kg i.v.), the Blood pressure drop amounted to 14.2 ± 5.2 mmHg, the Cl- excretion was 400 ± 45%, the “K+ excretion” value came to 238 ± 46% and the “Na+ excretion” value is given as 371 ± 69%. The Urine excretion in the assay with Male SD rats (CNP dose 160 nmol/kg i.v.) is recorded as 421 ± 40%. In the assay on Male SD rats (rats, intravenous, 12-160 nmol/kg), the “Natriuretic and hypotensive actions (in words)” value is given as “those actions increased in a dose-dependent manner”. Besides, in the assay with VSMC of rats, the “Growth inhibiting action on vascular smooth muscle cells (in words)” value was “had a growth inhibiting action”.
As for “pBNP: porcine-derived brain natriuretic peptide, single-stranded peptide composed of 26 amino acids having a single S--S bond (DSGCFGRRLDRIGSLSGLGCNVLRRY; disulfide 4-20 (inferred); UniProt P07634 106-131, looked up)”, the “Natriuretic and hypotensive actions compared with α-hANP (in words)” value with rats is “comparable levels of natriuretic and hypotensive actions to α-hANP”.

Values taken from patent US5352770A, “Porcine derived novel physiologically active peptide” (priority 1990, dated 1994).
